How the values were obtained:
[1] = molecular target: T1, Angiotensin-converting enzyme (Oryctolagus cuniculus, UniProt P12822); assay: In vitro inhibitory activity against Angiotensin I converting enzyme (ACE) isolated from rabbit lung extract using hippuryl-L-histidyl-L-leucine (HHL) as the substrate
T1 sequence (P12822 whole entry): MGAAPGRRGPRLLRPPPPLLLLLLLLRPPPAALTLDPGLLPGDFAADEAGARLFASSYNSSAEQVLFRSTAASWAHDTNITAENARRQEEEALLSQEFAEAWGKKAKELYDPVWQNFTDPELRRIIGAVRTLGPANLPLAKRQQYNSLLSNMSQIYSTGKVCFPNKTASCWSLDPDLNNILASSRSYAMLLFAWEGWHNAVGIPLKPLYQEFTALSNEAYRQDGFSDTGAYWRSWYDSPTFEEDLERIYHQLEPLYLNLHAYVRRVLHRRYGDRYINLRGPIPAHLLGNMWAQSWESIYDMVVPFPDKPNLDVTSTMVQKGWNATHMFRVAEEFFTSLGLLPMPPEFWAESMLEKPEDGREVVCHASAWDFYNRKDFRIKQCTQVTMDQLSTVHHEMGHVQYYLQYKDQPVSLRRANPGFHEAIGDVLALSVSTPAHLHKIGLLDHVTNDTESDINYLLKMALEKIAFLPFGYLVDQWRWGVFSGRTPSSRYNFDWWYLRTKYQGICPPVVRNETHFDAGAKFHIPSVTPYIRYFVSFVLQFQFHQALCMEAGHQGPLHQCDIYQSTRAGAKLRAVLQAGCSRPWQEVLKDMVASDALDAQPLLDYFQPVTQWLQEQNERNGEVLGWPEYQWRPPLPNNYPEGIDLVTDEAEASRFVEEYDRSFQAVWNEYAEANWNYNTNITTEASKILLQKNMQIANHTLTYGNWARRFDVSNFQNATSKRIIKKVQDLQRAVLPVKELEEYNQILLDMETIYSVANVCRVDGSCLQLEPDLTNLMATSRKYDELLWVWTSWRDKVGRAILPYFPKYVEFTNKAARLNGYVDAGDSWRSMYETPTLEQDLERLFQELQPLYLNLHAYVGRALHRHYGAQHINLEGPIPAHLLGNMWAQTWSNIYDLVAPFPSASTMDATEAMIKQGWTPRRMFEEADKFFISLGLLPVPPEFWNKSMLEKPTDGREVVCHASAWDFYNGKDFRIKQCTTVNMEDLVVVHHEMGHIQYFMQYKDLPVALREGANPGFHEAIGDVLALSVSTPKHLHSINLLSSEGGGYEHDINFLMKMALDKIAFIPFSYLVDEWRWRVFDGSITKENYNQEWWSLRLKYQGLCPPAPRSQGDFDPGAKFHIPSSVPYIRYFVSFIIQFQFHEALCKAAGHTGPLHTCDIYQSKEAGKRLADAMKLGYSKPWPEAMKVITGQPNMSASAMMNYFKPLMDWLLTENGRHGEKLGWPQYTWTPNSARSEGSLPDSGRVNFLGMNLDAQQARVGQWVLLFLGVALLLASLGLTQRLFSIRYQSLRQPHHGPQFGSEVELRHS

Neprilysin = molecular target: T2, Neprilysin (Rattus norvegicus, UniProt P07861); assay: In vitro inhibitory activity against purified rat kidney neutral endopeptidase (NEP) using a fluorometric assay with dansyl-Gly-Phe-Arg as the substrate
T2 sequence (P07861 whole entry): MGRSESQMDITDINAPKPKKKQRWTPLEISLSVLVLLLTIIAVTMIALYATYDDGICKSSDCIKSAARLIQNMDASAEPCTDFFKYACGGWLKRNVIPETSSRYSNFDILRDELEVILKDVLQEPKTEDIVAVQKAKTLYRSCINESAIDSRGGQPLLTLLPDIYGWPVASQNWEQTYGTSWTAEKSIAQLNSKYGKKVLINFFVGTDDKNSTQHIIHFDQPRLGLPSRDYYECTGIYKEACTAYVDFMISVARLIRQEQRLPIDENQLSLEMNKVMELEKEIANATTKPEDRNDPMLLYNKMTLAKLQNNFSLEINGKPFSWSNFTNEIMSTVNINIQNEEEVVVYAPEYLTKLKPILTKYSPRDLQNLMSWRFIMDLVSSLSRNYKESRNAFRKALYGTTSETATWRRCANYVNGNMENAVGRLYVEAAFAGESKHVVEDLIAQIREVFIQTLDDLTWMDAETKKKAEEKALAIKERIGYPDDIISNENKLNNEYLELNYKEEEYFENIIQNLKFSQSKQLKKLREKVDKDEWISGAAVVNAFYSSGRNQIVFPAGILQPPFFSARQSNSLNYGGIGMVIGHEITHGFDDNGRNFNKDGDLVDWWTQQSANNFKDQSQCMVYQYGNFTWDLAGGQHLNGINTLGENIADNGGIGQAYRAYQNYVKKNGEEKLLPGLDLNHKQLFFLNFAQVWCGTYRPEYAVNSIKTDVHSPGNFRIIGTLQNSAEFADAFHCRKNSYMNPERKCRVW

Rattus norvegicus = organism: Rattus norvegicus; assay: Compound is evaluated for the dose required for 50% inhibition of AI pressor response in normotensive rats; format: functional

Compound | IC50 [1] [nM] | IC50 (Neprilysin) [nM] | ED50 (Rattus norvegicus) [µmol/kg]
O=C(O)CN1C(=O)[C@@H](NC(=O)[C@@H](S)Cc2ccccc2)CCCC12CC2 | 9.6 | 377 | –
O=C(O)CN1C(=O)[C@@H](NC(=O)[C@@H](S)Cc2ccccc2)CCCC12CCC2 | 29 | 641 | –
O=C(O)CN1C(=O)[C@@H](NC(=O)[C@@H](S)Cc2ccccc2)CCCC12CCCC2 | 6 | 426 | –
C[C@H]1CCC[C@H](NC(=O)[C@@H](S)Cc2ccccc2)C(=O)N1CC(=O)O | 8.2 | – | –
CC1(C)CCC[C@H](NC(=O)[C@@H](S)Cc2ccccc2)C(=O)N1CC(=O)O [GEMOPATRILAT] | 12 | 63 | 0.1

From ChEMBL document CHEMBL1132420, “Vasopeptidase inhibitors: incorporation of geminal and spirocyclic substituted azepinones in mercaptoacyl dipeptides” (J Med Chem, 1999)
